# Data reported in patent publication US10575528B2, “Plant disease control composition and plant disease control method” (SUMITOMO CHEMICAL COMPANY, LIMITED, priority 2015, dated 2020).
# Key:
# [1] = test system: damping-off fungus (Rhizoctonia solani); test: Test Example 16: soybean seed smearing treatment, damping-off pot test (Table 5); type: in vivo; settings: soybean seeds, 20 days after
# Protocol: (§1) If the effect by the combination of two active ingredients is greater than that of the estimated value E, which is calculated by the Colby's equation as follows, the effect is regarded as synergistic. E=X+Y−X·Y/100 wherein, E=Control value when using the mixture of the active ingredients A and B at the concentrations m and n (amount of the active ingredient), respectively.
# (§2) X=Control value when using the active ingredient A at the concentration m (amount of the active ingredient).
# (§3) Y=Control value when using the active ingredient B at the concentration n (amount of the active ingredient).
# In a rotary seed treatment machine (trade name: HEGE11, manufactured by WINTERSTEIGER), soybean seeds (variety:“Hatayutaka”) were treated by smearing treatment using azoxystrobin flowable formulation (25% flowable formulation, trade name: Amistar, Syngenta), trifloxystrobin flowable formulation (25% flowable formulation, trade name: FLINT, Bayer CropScience), a chemical liquid prepared by diluting picoxystrobin in acetone/Tween 20 (weight ratio=95:5) and diluting with water, a chemical liquid prepared by dissolving mandestrobin in acetone/Tween 20 (weight ratio=95:5) and diluting with water, and the flowable formulation obtained of the present bacterial strain in Formulation Example 16, so that the soybean seeds retain the bacteria and the compound in the amount shown in Table 5.
# Cultivation was carried out in a greenhouse under irrigation. Also, similar procedures were conducted using untreated soybean seeds, instead of the treated soybean seeds, as described above for the treated compartment (“untreated compartment”). The plants were investigated 20 days after for the number of diseased plants, and the disease incidence was calculated by the following “Equation 1”. The control value of the treated compartment was calculated by the following equation “Equation 2”, based on the disease incidences of the treated compartment and the untreated compartment. Disease incidence (%)=100×(number of diseased plant/total number of seeded seeds): Equation 1 Control value (%)=100×[(disease incidence in untreated compartment−disease incidence in treated compartment)/disease incidence in untreated compartment]: Equation 2
# [2] = test system: damping-off fungus (Fusarium spp.); test: Test Example 15: corn seed smearing treatment, damping-off pot test (Table 4); type: in vivo; settings: corn seeds, 20 days after
# Protocol: In a rotary seed treatment machine (trade name: HEGE11, manufactured by WINTERSTEIGER), corn seeds (variety: yellow dent corn) were treated by smearing treatment using pyraclostrobin flowable formulation (20% wettable granules, trade name: Comet, BASF. Corporation), a chemical liquid prepared by dissolving fluoxastrobin in acetone/Tween 20 (weight ratio=95:5) and diluting with water, and the flowable formulation of the present bacterial strain obtained in Formulation Example 16, respectively, so that the corn seeds retain the present bacterial strain and the compound in the amount shown in Table 4.
# Cultivation was carried out in a greenhouse under irrigation. Also, similar procedures were conducted using untreated corn seeds, instead of the treated corn seeds, as described above for the treated compartment (“untreated compartment”). The plants were investigated 20 days after for the number of diseased plants, and the disease incidence was calculated by the following “Equation 1”. The control value of the treated compartment was calculated by the following equation “Equation 2”, based on the disease incidences of the treated compartment and the untreated compartment. Disease incidence (%)=100×(number of diseased plant/total number of seeded seeds): Equation 1 Control value (%)=100×[(disease incidence in […] in treated compartment)/disease incidence in untreated compartment]: Equation 2
# as §1, §2, §3
Compound,Controlling Effect (control value) ([1]; 0.01 g/Kg seeds),Controlling Effect (control value) ([2]; 0.05 g/Kg seeds),Controlling Effect (control value) ([2]; 0.1 g/Kg seeds),Controlling Effect (control value) ([1]; 0.05 g/Kg seeds),Controlling Effect (control value) ([1]; 0.002 g/Kg seeds),further results
CO/C=C(/C(=O)OC)c1ccccc1Oc1cc(Oc2ccccc2C#N)ncn1 [Azoxystrobin],29.5%,,,,,Controlling Effect (control value) ([1]; 0.005 g/Kg seeds): 15.9%; Controlling Effect (control value) ([1]; 0.02 g/Kg seeds): 38.6%
CO/N=C(/C1=NOCCO1)c1ccccc1Oc1ncnc(Oc2ccccc2Cl)c1F [Fluoxastrobin],,14.0%,30.2%,,,Controlling Effect (control value) ([2]; 0.2 g/Kg seeds): 41.9%
CNC(=O)C(OC)c1ccccc1COc1cc(C)ccc1C (stereo not drawn) [Mandestrobin],,,,36.4%,,Controlling Effect (control value) ([1]; 0.025 g/Kg seeds): 25.0%; Controlling Effect (control value) ([1]; 0.1 g/Kg seeds): 47.7%
CO/C=C(/C(=O)OC)c1ccccc1COc1cccc(C(F)(F)F)n1 [Picoxystrobin],27.3%,,,38.6%,18.2%,
COC(=O)N(OC)c1ccccc1COc1ccn(-c2ccc(Cl)cc2)n1 [Pyraclostrobin],,25.6%,37.2%,,,Controlling Effect (control value) ([2]; 0.025 g/Kg seeds): 18.6%
CON=C(C(=O)OC)c1ccccc1CON=C(C)c1cccc(C(F)(F)F)c1 [Trifloxystrobin],31.8%,,,40.9%,20.5%,
